Results taken from patent US20220087987A1, “A METHOD FOR TREATING SWI/SNF COMPLEX-DEFICIENT CANCERS COMPRISING GLUTATHIONE (GSH) METABOLIC PATHWAY INHIBITOR” (National Cancer Center, priority 2018, published 2022).
Counter-ions that a name gives are not always drawn. Like-named read-outs stand apart in the source and are kept apart here.

Legend:
ARID1A-KO HCT116 cells = experiment: Drug library screen, cell viability (CellTiter-Glo); assay type: cell-based, human; conditions: Homo sapiens, HCT-116, 120 h, read-out: Cell viability, KO
How it was run: (§1)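 ARID1A-WT and ARID1A-KO HCT116 cells screened against the library; viability read after 5 days by CellTiter-Glo luminescence, expressed relative to DMSO-treated cells. Hits: KO viability below 40% with WT viability above 80%.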

[1] = as above; assay type: cell-based, human; conditions: human
How it was run: as §1

[2] = HCT116 ARID1A-KO, 10 μM for 5 days, relative to cells treated with solvent (DMSO)
[3] = HCT116 ARID1A-WT, 10 μM for 5 days, relative to cells treated with solvent (DMSO), read-out: Cell viability, WT

| SMILES | viability at 10 µM (ARID1A-KO HCT116 cells; [2]) [%] | viability at 5 days, 10 μM [1, 3] [%] | also measured |
| --- | --- | --- | --- |
| COc1cc(Nc2ncc3c(n2)-c2ccc(Cl)cc2C(c2c(F)cccc2OC)=NC3)ccc1C(=O)O [MLN8237] | 39.1 | 36.8 |  |
| CN(Cc1cnc2nc(N)nc(N)c2n1)c1ccc(C(=O)N[C@@H](CCC(=O)O)C(=O)O)cc1 [Methotrexate] | 43.9 | 43 |  |
| CC#C[C@]1(O)CC[C@H]2[C@@H]3CCC4=CC(=O)CCC4=C3[C@@H](c3ccc(N(C)C)cc3)C[C@@]21C [Mifepristone] | 85.3 | 95.9 |  |
| CCOC(=O)C1=C(C)NC(=S)NC1c1cccc(O)c1 (stereo not shown) [Monastrol] | 104 | 102 |  |
| CC[C@@]1([C@@H]2O[C@@H]([C@H]3O[C@@](O)(CO)[C@H](C)C[C@@H]3C)C[C@@H]2C)CC[C@H]([C@]2(C)CC[C@]3(C[C@H](O)[C@@H](C)[C@@H]([C@@H](C)[C@@H](OC)[C@H](C)C(=O)O)O3)O2)O1 [Monensin] |  |  | viability at 10 µM (ARID1A-KO HCT116 cells): 3.95%; viability at 5 days, 10 μM [1]: 3.45% |
| CC(=O)N[C@@H](CS)C(=O)O [N-Acetyl-L-cysteine] | 139 | 186 |  |
| O=C(O)c1ccccc1Nc1ccccc1 [N-phenylanthranilic acid] | 118 | 101 |  |
| CS(=O)(=O)Nc1ccc([N+](=O)[O-])cc1OC1CCCCC1 [NS-398] |  | 177 | viability at 10 µM (ARID1A-KO HCT116 cells): 142% |
| CCn1cc(C(=O)O)c(=O)c2ccc(C)nc21 [Nalidixic acid] | 97.5 | 102 |  |
| CO[C@@H]1C[C@@H](C[C@H]2CC[C@H](C)[C@H]([C@@H](C)C(=O)O)O2)O[C@]2(O[C@](C)([C@H]3CC[C@@](C)([C@@H]4O[C@@H]([C@H]5O[C@@](O)(CO)[C@H](C)C[C@@H]5C)C[C@@H]4C)O3)C[C@H]2C)[C@@H]1C [Nigericin] |  |  | viability at 10 µM (ARID1A-KO HCT116 cells): 4.01%; viability at 5 days, 10 μM [1]: 3.47% |
| COC(=O)Nc1nc2ccc(C(=O)c3cccs3)cc2[nH]1 [Nocodazole] |  | 6.51 | viability at 10 µM (ARID1A-KO HCT116 cells): 7.15% |
| CC(Cc1ccc(O)c(O)c1)C(C)Cc1ccc(O)c(O)c1 (stereo not shown) [Nordihydroguaiaretic acid (NDGA), Nordihydroguaiaretic acid] | 112 | 101 |  |
| C[C@]1(O)C[C@@H](c2nc(-c3ccc4ccc(-c5ccccc5)nc4c3)c3c(N)nccn32)C1 [OSI-906] | 79.1 | 59.1 |  |
| NCC(=O)Nc1ccc(-n2nc(C(F)(F)F)cc2-c2ccc3c(ccc4ccccc43)c2)cc1 [OSU-03012] | 105 | 91.9 |  |
| O=C(c1cc(Cc2n[nH]c(=O)c3ccccc23)ccc1F)N1CCN(C(=O)C2CC2)CC1 [Olaparib] | 19.5 | 20.9 |  |
| CC[C@H]1/C=C/C=C/C[C@@H](C)[C@H](O)[C@@](C)(O)C(=O)[C@@H](C)[C@H](O)[C@@H](C)C(=O)[C@@H](C)[C@H](O)[C@@H](C)/C=C/C(=O)O[C@@H]2[C@H](C)[C@H](CC1)O[C@]1(CC[C@H](C)[C@H](C[C@@H](C)O)O1)[C@H]2C [Oligomycin] | 21.7 | 13.6 |  |
| Cn1cnc2c(NCc3ccccc3)nc(NCCO)nc21 [Olomoucine] |  | 173 | viability at 10 µM (ARID1A-KO HCT116 cells): 122% |
| C[C@@H]1O[C@@H](O[C@H]2C[C@@H](O)[C@]3(CO)[C@H]4[C@H](O)C[C@]5(C)[C@@H](C6=CC(=O)OC6)CC[C@]5(O)[C@@H]4CC[C@]3(O)C2)[C@H](O)[C@H](O)[C@H]1O [Ouabain] | 5.12 |  | viability [1, 3]: 4.81% |
| CC(=O)O[C@H]1C(=O)[C@@]2(C)[C@H]([C@H](OC(=O)c3ccccc3)[C@]3(O)C[C@H](OC(=O)[C@H](O)[C@@H](NC(=O)c4ccccc4)c4ccccc4)C(C)=C1C3(C)C)[C@]1(OC(C)=O)CO[C@@H]1C[C@@H]2O [Paclitaxel] | 6.42 | 4.91 |  |
| NNCCc1ccccc1 [Phenelzine] | 119 | 101 |  |
| C[C@@H]1C[C@H]2O[C@@H]2/C=C\C=C\C(=O)Cc2c(Cl)c(O)cc(O)c2C(=O)O1 [Radicicol] | 5.65 | 7.12 |  |
| CO[C@H]1C[C@@H]2CC[C@@H](C)[C@@](O)(O2)C(=O)C(=O)N2CCCC[C@H]2C(=O)O[C@H]([C@H](C)C[C@@H]2CC[C@@H](O)[C@H](OC)C2)CC(=O)[C@H](C)/C=C(\C)[C@@H](O)[C@@H](OC)C(=O)[C@H](C)C[C@H](C)/C=C/C=C/C=C/1C [Rapamycin] | 125 | 169 |  |

| SMILES | viability at 10 µM (ARID1A-KO HCT116 cells; [2]) [%] | viability at 5 days, 10 μM [1, 3] [%] | also measured |
| --- | --- | --- | --- |
| C=C(C)[C@H]1Cc2c(ccc3c2O[C@@H]2COc4cc(OC)c(OC)cc4[C@@H]2C3=O)O1 [Rotenone] | 6.99 |  | viability [1, 3]: 5.52% |
| N#CC[C@H](C1CCCC1)n1cc(-c2ncnc3[nH]ccc23)cn1 [Ruxolitinib] | 86.1 | 58.1 |  |
| Oc1c2ccccc2c2c3c(cccc13)N=N2 [SP600125] | 105 | 172 |  |
| C[n+]1cc2c3c(ccc2c2ccc4cc5c(cc4c21)OCO5)OCO3 [Sanguinarine] | 2.09 |  | viability [1, 3]: 1.83% |
| O=C(CCCCCN1C(=O)c2cccc3cccc(c23)C1=O)NO [Scriptaid] | 5.74 | 6.95 |  |
| O=C([O-])c1ccccc1O.[Na+] [Sodium salicylate] |  |  | viability at 10 µM (ARID1A-KO HCT116 cells): 125%; viability [1]: 177% |
| CN[C@@H]1C[C@H]2O[C@@](C)([C@@H]1OC)n1c3ccccc3c3c4c(c5c6ccccc6n2c5c31)C(=O)NC4 [Staurosporine] | 4.14 |  | viability [1, 3]: 5.22% |
| CSc1ccc(/C=C2/C(C)=C(CC(=O)O)c3cc(F)ccc32)cc1 [Sulindac sulfide] | 140 | 195 |  |
| O[C@H]1[C@H]2[C@H](O)CCCN2C[C@H]1O [Swainsonine] | 110 |  | viability [1, 3]: 115% |
| CC1=C(O)C(=O)[C@@H]2O[C@@H]2C1=O [Terreic acid] | 90.5 |  | viability [1, 3]: 88.9% |
| C/C=C(/C)C(=O)O[C@H]1C(C)=C2[C@H]([C@@H]1OC(=O)CCCCCCC)[C@@](C)(OC(C)=O)C[C@H](OC(=O)CCC)[C@@]1(O)[C@H]2OC(=O)[C@@]1(C)O [Thapsigargin] |  |  | viability at 10 µM (ARID1A-KO HCT116 cells): 2.88%; viability at 5 days, 10 μM [1]: 2.63% |
| Cn1c(=O)c2[nH]cnc2n(C)c1=O [Theophylline] | 140 | 203 |  |
| Cc1c(C)c2c(c(C)c1O)CCC(C)(COc1ccc(CC3SC(=O)NC3=O)cc1)O2 (stereo not shown) [Troglitazone] | 94.7 | 101 |  |
| N#CC(=C(/N)Sc1ccccc1N)/C(C#N)=C(\N)Sc1ccccc1N [U0126] |  |  | viability at 10 µM (ARID1A-KO HCT116 cells): 68.3%; viability [1]: 80.5% |
| COc1cc2c(NC3CCN(C(C)C)CC3)nc(C3CCCCC3)nc2cc1OCCCN1CCCC1 [UNC0638] | 3.8 | 2.6 |  |
| CC(C)[C@@H]1NC(=O)[C@H](C)OC(=O)[C@@H](C(C)C)NC(=O)[C@@H](C(C)C)OC(=O)[C@H](C(C)C)NC(=O)[C@H](C)OC(=O)[C@@H](C(C)C)NC(=O)[C@@H](C(C)C)OC(=O)[C@H](C(C)C)NC(=O)[C@H](C)OC(=O)[C@@H](C(C)C)NC(=O)[C@@H](C(C)C)OC1=O [Valinomycin] | 4.17 |  | viability [1, 3]: 3.65% |
| COc1cc2c(Nc3ccc(Br)cc3F)ncnc2cc1OCC1CCN(C)CC1 [Vandetanib] | 28.9 | 14.1 |  |
| CCCS(=O)(=O)Nc1ccc(F)c(C(=O)c2c[nH]c3ncc(-c4ccc(Cl)cc4)cc23)c1F [Vemurafenib] | 108 | 103 |  |
| CC[C@]1(O)C[C@@H]2CN(CCc3c([nH]c4ccccc34)[C@@](C(=O)OC)(c3cc4c(cc3OC)N(C)[C@H]3[C@@](O)(C(=O)OC)[C@H](OC(C)=O)[C@]5(CC)C=CCN6CC[C@]43[C@@H]65)C2)C1 [Vinblastine sulfate] | 4.49 | 2.73 |  |
| CS(=O)(=O)c1ccc(C(=O)Nc2ccc(Cl)c(-c3ccccn3)c2)c(Cl)c1 [Vismodegib] | 109 | 88.7 |  |
| C[C@H](NC(=O)/C(C#N)=C/c1cccc(Br)n1)c1ccccc1 [WP1066] | 20 | 15.3 |  |
| COC[C@H]1OC(=O)c2coc3c2[C@@]1(C)C1=C(C3=O)[C@@H]2CCC(=O)[C@@]2(C)C[C@H]1OC(C)=O [Wortmannin] | 116 | 181 |  |
